Patent US4605744A, “Imidazole derivatives” (Hoffmann-La Roche Inc., priority 1985, dated 1986)
Counter-ions that a name gives are not always drawn.

Tests used:
E. aerogenes 8 = assay: In vivo antibacterial activity (PD50); conditions: Klebsiella aerogenes, 8, sc, read-out: PD50, sc; challenge 10 LD50s; 2 treatments; Table 11
K. pneumoniae 39 = assay: In vivo activity alone and in combination (PD50, FIC); conditions: Klebsiella pneumoniae, 39, sc, alone
Experimental: (§1) In Tables 9-14, the results of the in vivo activity against certain microorganisms of compounds I, M and N as given. […] The results in these Tables and the PD50 's were determined by the procedure set forth on page 160 in Beskid et al., Antimicrobial Agents and Chemotherapy, Vol. 20, No. 2 pp. 159-167 (Aug. 1981) for "in vivo studies".
(§2) In the Tables, the fractional inhibitory concentration index (FIC) for synergistic combination of a compound of this invention (X) with known antibiotic compound (Y) is determined by the following formula:
(§3) FIC=(PD50 (X combination)/PD50 (X alone)+(PD50 (Y
(§4) combination)/PD50 (Y alone)
(§5) An FIC of ≤0.60 is indicative of synergy. The synergy rating in the Tables is as follows:
(§6) In the combination, the parts are parts by weight, i.e. 10 to 1 is 10 parts by weight to 1 part by weight.

E. cloacae 4633 = assay: as above; conditions: Enterobacter cloacae, 4633; sc; alone; read-out: PD50 (alone)
Experimental: as §1, §2, §3, §4, §5, §6

E. coli BC5524 = assay: as above; conditions: Escherichia coli, BC5524; sc; alone; read-out: PD50 (alone)
Experimental: as §1, §2, §3, §4, §5, §6

K. pneumoniae 503-990A = assay: as above; conditions: Klebsiella pneumoniae, 503990A, sc, alone
Experimental: as §1, §2, §3, §4, §5, §6

K. pneumoniae R2296 = assay: as above; conditions: Klebsiella pneumoniae, sc, alone
Experimental: as §1, §2, §3, §4, §5, §6

E. cloacae 6951 = assay: In vivo antibacterial activity (PD50); conditions: Enterobacter cloacae, 6951, sc, challenge 3162 LD50s, 2 treatments, Table 11
P. aeruginosa 8710 [1] = assay: In vivo antibacterial activity (PD50); conditions: Pseudomonas aeruginosa, 8710, sc, challenge >10^4 LD50s, 2 treatments, Table 11, read-out: PD50
E. coli 257 [2] = assay: In vivo antibacterial activity (PD50); conditions: Escherichia coli, 257, sc, challenge >10^4 LD50s, 1 treatment, Table 11
S. pyogenes 4 [3] = assay: In vivo antibacterial activity (PD50); conditions: Streptococcus pyogenes, 4, sc, read-out: PD50
S. pyogenes 4 [4] = assay: In vitro antibacterial activity (MIC); assay type: cell-based; conditions: Streptococcus pyogenes, 4, S. pyogenes 4; read-out: MIC
Summary of the method: (§7)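 Broth microdilution in Mueller-Hinton broth, drug range 128 to 0.008 μg/ml; each well inoculated with 1.5 μl of a 10^-2 dilution of overnight culture. Sealed trays incubated overnight at 37° C. MIC is the lowest concentration showing no visible growth.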

E. cloacae P99 = assay: In vitro antibacterial activity (MIC); assay type: cell-based; conditions: Enterobacter cloacae, P99, E. cloacae P99
Summary of the method: as §7

S. marcescens S3 = assay: In vitro antibacterial activity (MIC); assay type: cell-based; conditions: Serratia marcescens; S. marcescens S3; read-out: MIC
Summary of the method: as §7

S. pneumoniae 6301 = assay: In vitro antibacterial activity (MIC); assay type: cell-based; conditions: Streptococcus pneumoniae, 6301, S. pneumoniae 6301; read-out: MIC
Summary of the method: as §7

C. freundii 8ASM = assay: In vitro antibacterial activity (MIC); assay type: cell-based; conditions: Citrobacter freundii, 8ASM, C. freundii 8ASM; read-out: MIC
Summary of the method: as §7

S. pneumoniae SC = assay: In vitro antibacterial activity (MIC); assay type: cell-based; conditions: Streptococcus pneumoniae, read-out: MIC
Summary of the method: as §7

P. aeruginosa 8710 [5] = assay: In vitro antibacterial activity (MIC); assay type: cell-based; conditions: Pseudomonas aeruginosa; P. aeruginosa 8710; read-out: MIC
Summary of the method: as §7

P. vulgaris ATCC 6380 = assay: In vitro antibacterial activity (MIC); assay type: cell-based; conditions: Proteus vulgaris, ATCC6380, P. vulgaris ATCC 6380; read-out: MIC
Summary of the method: as §7

S. pneumoniae 6302 = assay: In vitro antibacterial activity (MIC); assay type: cell-based; conditions: Streptococcus pneumoniae, 6302, S. pneumoniae 6302; read-out: MIC
Summary of the method: as §7

P. mirabilis 503-1136 = assay: In vitro antibacterial activity (MIC); assay type: cell-based; conditions: Proteus mirabilis, 5031136, P. mirabilis 503-1136; read-out: MIC
Summary of the method: as §7

P. aeruginosa 503-56 [6] = assay: In vitro antibacterial activity (MIC); assay type: cell-based; conditions: Pseudomonas aeruginosa, 50356, P. aeruginosa 503-56
Summary of the method: as §7

E. cloacae 5699 = assay: In vitro antibacterial activity (MIC); assay type: cell-based; conditions: Enterobacter cloacae, 5699, E. cloacae 5699; read-out: MIC
Summary of the method: as §7

K. pneumoniae 5096 = assay: In vitro antibacterial activity (MIC); assay type: cell-based; conditions: Klebsiella pneumoniae; K. pneumoniae 5096; read-out: MIC
Summary of the method: as §7

P. mirabilis 190 = assay: In vitro antibacterial activity (MIC); assay type: cell-based; conditions: Proteus mirabilis, 190, P. mirabilis 190; read-out: MIC
Summary of the method: as §7

E. coli R-563 = assay: In vitro antibacterial activity (MIC); assay type: cell-based; conditions: Escherichia coli, R563, E. coli R-563; read-out: MIC
Summary of the method: as §7

K. pneumoniae A = assay: In vitro antibacterial activity (MIC); assay type: cell-based; conditions: Klebsiella pneumoniae, K. pneumoniae A; read-out: MIC
Summary of the method: as §7

P. mirabilis 90 = assay: In vitro antibacterial activity (MIC); assay type: cell-based; conditions: Proteus mirabilis, 90, P. mirabilis 90; read-out: MIC
Summary of the method: as §7

E. cloacae 24 = assay: In vitro antibacterial activity (MIC); assay type: cell-based; conditions: Enterobacter cloacae, 24, E. cloacae 24; read-out: MIC
Summary of the method: as §7

P. rettgeri ATCC 9250 = assay: In vitro antibacterial activity (MIC); assay type: cell-based; conditions: Providencia rettgeri, ATCC9250, P. rettgeri ATCC 9250; read-out: MIC
Summary of the method: as §7

S. typhi P58A = assay: In vitro antibacterial activity (MIC); assay type: cell-based; conditions: Salmonella enterica, TYPHI
Summary of the method: as §7

C. freundii CDC6 = assay: In vitro antibacterial activity (MIC); assay type: cell-based; conditions: Citrobacter freundii, CDC6, C. freundii CDC6; read-out: MIC
Summary of the method: as §7

P. aeruginosa 503-56 [7] = assay: In vivo antibacterial activity (PD50); conditions: Pseudomonas aeruginosa, 50356, sc, challenge 50 LD50s, 2 treatments, Table 11
E. coli 257 [8] = assay: In vitro antibacterial activity (MIC, Mueller-Hinton broth); assay type: cell-based; conditions: Escherichia coli, 257, E. coli 257; read-out: MIC
Summary of the method: as §7

S. faecalis C1 = assay: In vivo antibacterial activity (PD50); conditions: Enterococcus faecalis, C1; sc; challenge 10 LD50s; 1 treatment; Table 11

CC1(C)S[C@@H]2[C@H](N=CN3CCC(CCC4=NCCN4)CC3)C(=O)N2[C@H]1C(=O)O [N, [2S-(2alpha,5alpha,6beta)]-6-[[[4-[4,5-dihydro-1H-imidazol-2-yl)ethyl]-1-piperidinyl]methylene]amino]-3,3-dimethyl-7-oxo-4-thia-1-azabicyclo[3.2.0]heptane-2-carboxylic acid hydrochloride]
ED50 (E. aerogenes 8): > 250 mg/kg | ED50 (K. pneumoniae 39): 18 mg/kg | ED50 (E. cloacae 4633): 12 mg/kg | ED50 (E. coli BC5524): 114 mg/kg | ED50 (K. pneumoniae 503-990A): 5.5 mg/kg | ED50 (K. pneumoniae R2296): > 250 mg/kg | ED50 (E. cloacae 6951): < 2 mg/kg | ED50 (P. aeruginosa 8710 [1]): 50 mg/kg | ED50 (E. coli 257 [2]): < 1 mg/kg | ED50 (S. pyogenes 4 [3]): 4.3 mg/kg | MIC (S. pyogenes 4 [4]): 1 µg/mL | MIC (E. cloacae P99): 0.016 µg/mL | MIC (S. marcescens S3): 0.062 µg/mL | MIC (S. pneumoniae 6301): 1 µg/mL | MIC (C. freundii 8ASM): 0.031 µg/mL | MIC (S. pneumoniae SC): 1 µg/mL | MIC (P. aeruginosa 8710 [5]): 32 µg/mL | MIC (P. vulgaris ATCC 6380): 0.031 µg/mL | MIC (S. pneumoniae 6302): 2 µg/mL | MIC (P. mirabilis 503-1136): 4 µg/mL | MIC (P. aeruginosa 503-56 [6]): 16 µg/mL | MIC (E. cloacae 5699): 0.062 µg/mL | MIC (K. pneumoniae 5096): > 128 µg/mL | MIC (P. mirabilis 190): 0.125 µg/mL | MIC (E. coli R-563): 0.031 µg/mL | MIC (K. pneumoniae A): 0.016 µg/mL | MIC (P. mirabilis 90): 0.125 µg/mL | MIC (E. cloacae 24): 0.125 µg/mL | MIC (P. rettgeri ATCC 9250): 0.125 µg/mL | MIC (S. typhi P58A): 0.031 µg/mL | MIC (C. freundii CDC6): 0.031 µg/mL | ED50 (P. aeruginosa 503-56 [7]): 43 mg/kg | MIC (E. coli 257 [8]): 0.031 µg/mL | ED50 (S. faecalis C1): 62 mg/kg
